In patent US8952024B2, “Herbicidal pyrimidone derivatives” (E I du Pont de Nemours and Company, priority 2009, dated 2015):

What was measured:
Assay in all cases: Test B pre-/postemergence plant response
Assay type in all cases: in vivo
[1] = system: soybean (Glycine max); settings: Postemergence
Excerpt: (§1) Seeds of plant species selected from blackgrass (Alopecurus myosuroides), downy bromegrass (Bromus tectorum), green foxtail (Setaria viridis), Italian ryegrass (Lolium multiflorum), wheat (Triticum aestivum), wild oat (Avena fatua), deadnettle (henbit deadnettle, Lamium amplexicaule), galium (catchweed bedstraw, Galium aparine), bermudagrass (Cynodon dactylon), Surinam grass (Brachiaria decumbens), cocklebur (Xanthium strumarium), corn (Zea mays), large crabgrass (Digitaria sanguinalis), woolly cupgrass (Eriochloa villosa), giant foxtail (Setaria faberii), goosegrass (Eleusine indica), johnsongrass (Sorghum halepense), kochia (Kochia scoparia), lambsquarters (Chenopodium album), morningglory (Ipomoea coccinea), nightshade (eastern black nightshade, Solanum ptycanthum), yellow nutsedge (Cyperus esculentus), pigweed (Amaranthus retroflexus), ragweed (common ragweed, Ambrosia elatior), Russian thistle (Salsola kali), soybean (Glycine max), sunflower (common oilseed sunflower, Helianthus annuus) and velvetleaf (Abutilon theophrasti) were planted into a blend of loam soil and sand and treated preemergence with test compounds formulated in a non-phytotoxic solvent mixture which included a surfactant.
(§2) At the same time, plants selected from these crop and weed species and also winter barley (Hordeum vulgare), canarygrass (Phalaris minor), chickweed (Stellaria media) and windgrass (Apera spica-venti) were planted in pots containing Redi-Earth® planting medium (Scotts Company, 14111 Scottslawn Road, Marysville, Ohio 43041) comprising spaghnum peat moss, vermiculite, wetting agent and starter nutrients and treated with postemergence applications of some of the test chemicals formulated in the same manner. Plants ranged in height from 2 to 18 cm (1- to 4-leaf stage) for postemergence treatments.
(§3) Treated plants and controls were maintained in a greenhouse for 13 to 15 days, after which time all treated plants were visually evaluated and compared to controls. Plant response ratings, summarized in Table B, are based on a scale of 0 to 100 where 0 is no effect and 100 is complete control. A dash (-) response means no test result.

[2] = system: giant foxtail (Setaria faberii); settings: Postemergence
Excerpt: as §1, §2, §3

[3] = system: corn (Zea mays); settings: Postemergence
Excerpt: as §1, §2, §3

[4] = system: green foxtail (Setaria viridis); settings: Postemergence
Excerpt: as §1, §2, §3

[5] = system: pigweed (Amaranthus retroflexus); settings: Postemergence
Excerpt: as §1, §2, §3

[6] = system: kochia (Kochia scoparia); settings: Postemergence
Excerpt: as §1, §2, §3

[7] = system: cocklebur (Xanthium strumarium); settings: Postemergence
Excerpt: as §1, §2, §3

[8] = system: wild oat (Avena fatua); settings: Postemergence
Excerpt: as §1, §2, §3

[9] = system: bermudagrass (Cynodon dactylon); settings: for Plant response rating, Bermudagrass: Postemergence; for Bermudagrass plant response rating (0 to 100 scale): postemergence, 0 is no effect, 100 is complete control
Excerpt: as §1, §2, §3

[10] = system: lambsquarters (Chenopodium album); settings: Postemergence
Excerpt: as §1, §2, §3

[11] = system: johnsongrass (Sorghum halepense); settings: Postemergence
Excerpt: as §1, §2, §3

[12] = system: ragweed (common ragweed, Ambrosia elatior); settings: Postemergence
Excerpt: as §1, §2, §3

[13] = 31 g ai/ha, 0 to 100 scale (0 no effect, 100 complete control)
[14] = 125 g ai/ha, scale 0 to 100 (0 no effect, 100 complete control)
[15] = 250 g ai/ha, scale 0 to 100 (0 no effect, 100 complete control), 13 to 15 days
[16] = 125 g ai/ha, scale 0 (no effect) to 100 (complete control), 13 to 15 days
[17] = 62 g ai/ha, scale 0 to 100 (0 no effect, 100 complete control)

O=C1CCCC(O)=C1C(=O)c1cnc(-c2ccccc2)n(C2CC[S+]([O-])CC2)c1=O (mixture of isomers) [Compound 169, 5-[(2-hydroxy-6-oxo-1-cyclohexen-1-yl)carbonyl]-2-phenyl-3-(trans/cis-tetrahydro-1-oxido-2H-thiopyran-4-yl)-4(3H)-pyrimidinone]
95: Plant response rating, Soybean [1, 14] | Plant response rating, Foxtail, Giant [2, 13] | Plant response rating, Foxtail, Green [4, 14] | Plant response rating, Lambsquarters ([10]; 16 g ai/ha, 0 to 100 scale)
100: Plant response rating, Foxtail, Giant [2, 14] | Plant response rating, Pigweed [5, 13] | Plant response rating, Pigweed [5, 14] | Plant response rating, Kochia ([6]; 16 g ai/ha, 0 to 100 scale) | Plant response rating, Kochia [6, 13] | Plant response rating, Kochia [6, 14] | Plant response rating, Cocklebur ([7]; 16 g ai/ha, 0 to 100 scale) | Plant response rating, Cocklebur [7, 13] | Plant response rating, Cocklebur [7, 14] | Plant response rating, Bermudagrass [9, 14] | Plant response rating, Lambsquarters [10, 13] | Plant response rating, Lambsquarters [10, 14] | Plant response rating, Ragweed [12, 13] | Plant response rating, Ragweed [12, 14]
0: Plant response rating, Oat, Wild ([8]; 16 g ai/ha, 0 to 100 scale) | Plant response rating, Oat, Wild [8, 13]
90: Plant response rating, Soybean [1, 13] | Plant response rating, Pigweed ([5]; 16 g ai/ha, 0 to 100 scale)
60: Plant response rating, Foxtail, Green [4, 13] | Plant response rating, Johnsongrass [11, 13]
20: Plant response rating, Corn ([3]; 16 g ai/ha, 0 to 100 scale)
65: Plant response rating, Johnsongrass [11, 14]
40: Plant response rating, Johnsongrass ([11]; 16 g ai/ha, 0 to 100 scale)
70: Plant response rating, Bermudagrass ([9]; 16 g ai/ha, 0 to 100 scale) | Plant response rating, Bermudagrass [9, 13]
45: Plant response rating, Corn [3, 13] | Plant response rating, Foxtail, Green ([4]; 16 g ai/ha, 0 to 100 scale)
75: Plant response rating, Foxtail, Giant ([2]; 16 g ai/ha, 0 to 100 scale) | Bermudagrass plant response rating (0 to 100 scale) ([9]; 62 g ai/ha, 13 to 15 days)
85: Plant response rating, Oat, Wild [8, 14]
98: Plant response rating, Ragweed ([12]; 16 g ai/ha, 0 to 100 scale)
55: Plant response rating, Soybean ([1]; 16 g ai/ha, 0 to 100 scale) | Plant response rating, Corn [3, 14]

O=C1CCCC(O)=C1C(=O)c1cnc(C2CC2)n(C2CCCCC2)c1=O [Compound 160]
90: Plant response rating, Pigweed [5, 13] | Plant response rating, Kochia [6, 13] | Plant response rating, Bermudagrass [9, 14]
85: Plant response rating, Soybean [1, 13] | Plant response rating, Foxtail, Giant [2, 15]
15: Plant response rating, Corn [3, 13]
65: Plant response rating, Bermudagrass [9, 13] | Plant response rating, Johnsongrass [11, 14]
75: Plant response rating, Foxtail, Giant [2, 14] | Bermudagrass plant response rating (0 to 100 scale) ([9]; 62 g ai/ha, 13 to 15 days) | Plant response rating, Johnsongrass [11, 15]
60: Plant response rating, Corn [3, 15] | Plant response rating, Oat, Wild [8, 15]
80: Plant response rating, Ragweed [12, 13]
98: Plant response rating, Soybean [1, 14] | Plant response rating, Soybean [1, 15] | Plant response rating, Foxtail, Green [4, 15] | Plant response rating, Cocklebur [7, 13] | Plant response rating, Lambsquarters [10, 14] | Plant response rating, Lambsquarters [10, 15] | Plant response rating, Ragweed [12, 14] | Plant response rating, Ragweed [12, 15]
95: Plant response rating, Bermudagrass [9, 15] | Plant response rating, Lambsquarters [10, 13]
50: Plant response rating, Corn [3, 14] | Plant response rating, Oat, Wild [8, 14]
45: Plant response rating, Johnsongrass [11, 13]
70: Plant response rating, Foxtail, Giant [2, 13] | Plant response rating, Foxtail, Green [4, 14]
10: Plant response rating, Oat, Wild [8, 13]
100: Plant response rating, Pigweed [5, 14] | Plant response rating, Pigweed [5, 15] | Plant response rating, Kochia [6, 14] | Plant response rating, Kochia [6, 15] | Plant response rating, Cocklebur [7, 14] | Plant response rating, Cocklebur [7, 15]
55: Plant response rating, Foxtail, Green [4, 13]

CCCCn1c(-c2ccccc2)ncc(C(=O)C2=C(O)C3CCC(C3)C2=O)c1=O (centres unmarked) [Compound 240]
80: Plant response rating, Kochia [6, 13]
90: Plant response rating, Corn [3, 13] | Plant response rating, Foxtail, Green [4, 13] | Plant response rating, Foxtail, Green [4, 17]
98: Plant response rating, Foxtail, Green [4, 15] | Plant response rating, Kochia [6, 17] | Plant response rating, Bermudagrass [9, 13] | Plant response rating, Lambsquarters [10, 13] | Plant response rating, Ragweed [12, 13] | Plant response rating, Ragweed [12, 17]
40: Plant response rating, Oat, Wild [8, 17]
95: Plant response rating, Soybean [1, 13] | Plant response rating, Soybean [1, 16] | Plant response rating, Soybean [1, 17] | Plant response rating, Corn [3, 17] | Plant response rating, Foxtail, Green [4, 16]
25: Plant response rating, Oat, Wild [8, 13]
100: Plant response rating, Soybean [1, 15] | Plant response rating, Foxtail, Giant [2, 13] | Plant response rating, Foxtail, Giant [2, 16] | Plant response rating, Foxtail, Giant [2, 15] | Plant response rating, Foxtail, Giant [2, 17] | Plant response rating, Corn [3, 16] | Plant response rating, Corn [3, 15] | Plant response rating, Pigweed [5, 16] | Plant response rating, Pigweed [5, 15] | Plant response rating, Pigweed [5, 17] | Plant response rating, Kochia [6, 16] | Plant response rating, Kochia [6, 15] | Plant response rating, Bermudagrass [9, 16] | Plant response rating, Bermudagrass [9, 15] | Plant response rating, Bermudagrass [9, 17] | Plant response rating, Lambsquarters [10, 16] | Plant response rating, Lambsquarters [10, 15] | Plant response rating, Lambsquarters [10, 17] | Plant response rating, Johnsongrass [11, 16] | Plant response rating, Johnsongrass [11, 15] | Plant response rating, Johnsongrass [11, 17] | Plant response rating, Ragweed [12, 16] | Plant response rating, Ragweed [12, 15]
45: Plant response rating, Oat, Wild [8, 16]
60: Plant response rating, Oat, Wild [8, 15]
